Test system: BJeLR fibroblasts viability, Alamar Blue fluorescence, 48 h
Assay: BJeLR cell growth inhibition – Ras selective lethality, dry powder, set 4, dose response (AID 540318)

| Structure (SMILES) | AC50 [µM] |
| --- | --- |
| O=C(c1cc([N+](=O)[O-])ccn1)N1CCN(C(c2ccccc2)c2ccccc2)CC1 | 37.1 |
| Cc1onc(C(=O)N2CCN(C(c3ccc(F)cc3)c3ccc(F)cc3)CC2)c1[N+](=O)[O-] | 0.934 |
| COc1ccc(C(c2ccc(OC)cc2)N2CCN(C(=O)c3noc(C)c3[N+](=O)[O-])CC2)cc1 | 4.29 |
| COC(=O)c1ccc([C@@H]2c3[nH]c4ccccc4c3C[C@@H](C(=O)OC)N2C(=O)CCl)cc1 | 0.79 |
| O=C(NCCNC(c1ccccc1)c1ccccc1)c1ccc([N+](=O)[O-])o1 | 25.9 |
| CCOc1ccccc1-n1c(C(C)N2CCN(C(=O)COc3ccc(Cl)cc3)CC2)nc2ccccc2c1=O (configuration not stated) | 1.43 |
| Cc1onc(C(=O)N2CCN(C(c3ccccc3)c3ccc(Cl)cc3)CC2)c1[N+](=O)[O-] (configuration not stated) | 0.706 |
| Cc1onc(CC(=O)N2CCN(C(c3ccc(F)cc3)c3ccc(F)cc3)CC2)c1[N+](=O)[O-] | 28 |
| Cc1onc(C(=O)N2CCCN(C(c3ccccc3)c3ccccc3)CC2)c1[N+](=O)[O-] | 3.45 |
| O=C(c1ccc([N+](=O)[O-])o1)N1CCN(C(c2ccc(F)cc2)c2ccc(F)cc2)CC1 | 34.9 |
| Cc1onc(C(=O)N2CCN(C(c3ccc(Cl)cc3)c3ccc(Cl)cc3)CC2)c1[N+](=O)[O-] | 0.364 |
| Cc1onc(C(=O)N2CCN(C(c3ccccc3)c3ccccc3)CC2)c1[N+](=O)[O-] | 2.81 |

— PubChem BioAssay AID540318 (Broad Institute, 2011)
